Patent publication US20150164866A1, “METHODS OF ADMINISTERING RIFAXIMIN FOR WEIGHT LOSS AND TREATMENT OF OBESITY” (Salix Pharmaceuticals, Ltd, priority 2012, published 2015)

What was measured:
[1] = Pilot randomized placebo-controlled study of weight loss in obese patients (BMI>30); format: in vivo, human
Source text: (§1) Patients were followed for up to six months. The primary endpoint was weight loss at the end of the study. Laboratory assessments including a basic metabolic panel, liver enzymes, lipid profile, and HbA1c (glucose testing) were obtained pre- and post-treatment.
(§2) Baseline demographic characteristics included median age of 45 (range 18-62) years, gender (73% female) average starting weight of 238.5±77.1 lbs and BMI of 38.8±9.7. Common co-morbidities included GERD (37%), hypertension (32%), diabetes (19%), and lipid disorders (14%). […] Weight loss in the rifaximin group was statistically significant (P<0.03) when compared to baseline weight. Diabetics tended to lose more weight (−6.1 lbs), and patients with underlying lipid disorders lost the least (−0.7 lbs).

[2] = Laboratory assessments (lipid profile) pre- and post-treatment in obese patients; format: in vivo, human; conditions: RFX vs. PBO, p<0.04; 550 mg twice daily for 20 days
Source text: as §1, §2

[3] = system: species of Staphylococcus, Streptococcus, Enterococcus, and Enterobacteriaceae; conditions: in vitro data; cited from earlier work

In the case of `COC1/C=C/OC2(C)Oc3c(C)c(O)c4c(O)c(c5c(nc6cc(C)ccn65)c4c3C2=O)NC(=O)/C(C)=C\C=C\C(C)C(O)C(C)C(O)C(C)C(OC(C)=O)C1C` (stereo not shown) [RFX], the mean weight lost ([1]; first study visit following treatment, 550 mg twice daily for 20 days, patients with BMI>30) is reported as 1.1 lbs, the “mean weight lost at the end of the study” value ([1]; mean follow-up of 4.9 months, 550 mg twice daily for 20 days, P<0.03 compared to baseline weight) is reported as 4.5 lbs and the “weight loss as compared to placebo patients” value ([1]; obese patients (BMI>30), pilot study) is reported as “greater weight loss”. For the same molecule, the “weight change in diabetics” value ([1]; subgroup: diabetics, 550 mg twice daily for 20 days) was −6.1 lbs, the “weight change in patients with underlying lipid disorders” value ([1]; subgroup: underlying lipid disorders, 550 mg twice daily for 20 days) was −0.7 lbs and the “Triglycerides difference pre- to post-treatment” value [2] was “+15.9”. The “antibacterial activity in vitro” value [3] was “active”.
